# Source: patent publication US5053408A, “Hexitol derivatives having vasodilative activity” (Kyowa Hakko Kogyo Co., Ltd., priority 1989, dated 1991)
# Where a name gives a salt, the structure may show the parent alone.
# Tests used:
# [1] = tested on: coronary vasospasm model (lysine-vasopressin); assay: Effects on coronary vasospasm model (lysine-vasopressin test), inhibition of ST-segment elevation; type: in vivo, male Wistar rats; conditions: Rattus norvegicus, ip, 20 min before anesthetization; lysine-vasopressin 0.3 I.U./kg iv; MED = minimum dose with depression rate of 20% or higher; read-out: Coronary vasoconstriction model MED i.p.
# [2] = tested on: male dd-mice; assay: Acute toxicity; conditions: mouse, in vivo, 10080 min; for MLD i.p.: ip; for MLD p.o.: po
# Experimental: The compounds were orally administered and intraperitoneally administered to male dd-mice weighing 20 to 25 g. […] was determined by observing the mortality for seven days after the administration.
Compound,minimal effective dose [1] [mg/kg],MLD i.p. [2] [mg/kg],MLD p.o. [2] [mg/kg]
"O=C(c1cccnc1)N1CC[N+]([O-])([C@H]2CO[C@H]3[C@@H]2OC[C@@H]3O[N+](=O)[O-])CC1 [Compound 113, 5-Deoxy-5-[4-(pyridin-3-yl)carbonylpiperazin N^1-oxid-1-yl]-1.4;3.6-dianhydro-L-iditol 2-nitrate hydrochloride]",< 25,> 100,> 300
"O=[N+]([O-])O[C@H]1CO[C@H]2[C@@H]1OC[C@@H]2N1CCN(CCc2nc3ccccc3[nH]2)CC1 [Compound 57, 5-[4-[2-(Benzimidazol-2-yl)ethyl]piperazin-1-yl]-5-deoxy-1.4;3.6-dianhydro-L-iditol 2-nitrate hydrochloride]",< 25,> 100,> 300
